Measured values reported in patent US20220096602A1, “LIF THERAPY FOR INDUCING INTESTINAL EPITHELIAL CELL REGENERATION” (Rutgers, the State University of New Jersey, priority 2019, published 2022).

Legend:
[1] = test system: WT intestinal organoids; assay: Intestinal organoid culture: growth and proliferation of WT organoids; type: cell-based, mouse; conditions: for stem cell number in WT organoids: organoids from WT, Lgr5-GFP mouse crypts; for growth and proliferation of WT organoids: Stattic 2 μM, SB242235 1 μM; for effect on ISC functions in WT organoids: blocking STAT3 or MAPK activity
Procedure: (§1) Crypt isolation and organoid culture were performed as described previously (Nan Gao's paper, 2015, Development). Crypts were isolated from the mouse small intestine. 150-200 crypts were embedded in growth factor-reduced Matrigel and cultured with mouse ENR organoid culture medium containing 1×B27 (Life Tech Gibco), 1×N2 (Life Tech Gibco), 1 mM N-acetylcysteine (Sigma), 50 ng/ml of EGF (Life Technology), 100 ng/ml of Noggin (R&D System), and 1 μg/ml of R-spondin 1 (R&D system). Recombinant mouse LIF (Millipore), wortmannin (Cell Signaling Technology) and CHIR99021 (Stemgent) were used for organoid treatment.
(§2) The size organoid was evaluated by quantify surface area of horizontal cross section of organoids acquired from multiple random non-overlapping pictures by an Olympus inverted microscope using ImageJ software. The vertical direction of expansion was not included in the calculations. n≥30/group. The percentages of budding organoids were analyzed by light microscopy at different days during organoid culture. n≥100/group.
(§3) IF staining of organoids was performed as previously described (Gao and Kaestner, 2010). In brief, organoids were fixed with 4% paraformaldehyde for 10 min, treated with 0.5% TritonX-100 for 10 min and blocked with 10% goat serum in IF buffer (0.1% BSA, 0.2% Triton X100, 0.05% Tween-20, 0.05% NaN3 in PBS) for 2 hours. Organoids were incubated with anti-Ki67 (Abcam, ab16667, 1:200 dilution) and anti-GFP (Abcam, ab6673, 1:1000 dilution) antibodies overnight at room temperature and then incubated with Alexa Fluor® 555 Goat Anti-Rabbit IgG (H+L) (Invitrogen, 1:800 dilution) and Alexa Fluor® 488 Donkey Anti-Goat IgG (H+L) (Invitrogen, 1:200 dilution), respectively to detect Ki67 and Lgr5-EGFP. Nuclei were stained with 4′, 6-diamidino-2-phenylindole (DAPI; Vector).

[2] = test system: LIF KO intestinal organoids; assay: Intestinal organoid culture: growth and proliferation of LIF KO organoids; type: cell-based, mouse; conditions: for stem cell number in LIF KO organoids: organoids from LIF KO, Lgr5-GFP mouse crypts; for growth and proliferation of LIF KO organoids: Stattic 2 μM, SB242235 1 μM
Procedure: as §1, §2, §3

[3] = test system: β-catenin target genes Axin2, Ascl1, Olfm4 and Lgr5; assay: Quantitative real-time PCR of β-catenin target genes in organoids; type: cell-based, mouse; conditions: normalized with β-actin
Procedure: Total RNA from mice small intestine tissues or organoids was prepared by using an RNeasy kit (Qiagen). Quantitative real-time PCR assays were performed as described previously. The expression of genes was normalized with the β-actin gene. Data was obtained from 5 independent biological samples with 3 technical replicates. To investigate whether LIF regulates ISC function through upregulating the AKT signaling, WT and LIF KO organoids were treated with Wortmannin, a PI3K inhibitor that inhibits the PI3K/Akt signaling, and Capivasertib, a specific AKT inhibitor (31, 32). […] Further, we directly examined the effects of Capivasertib and SC79 on β-catenin activity by measuring the mRNA levels of its target genes in WT and LIF KO organoids. […] We further treated organoids formed by WT or LIF KO; Lgr5-GFP mouse crypts with Wortmannin, Capivasertib or SC79. […] We further examined whether blocking GSK3β can improve the growth of LIF KO organoids.

[4] = test system: intestinal epithelium; assay: Regeneration of intestinal epithelium after irradiation in inducible LIF-tgflox/+/Cre-ERT2 mice; type: in vivo, mouse; conditions: tamoxifen-induced LIF expression; i.p. 3 days before 12 Gy IR; 72 h after irradiation
Procedure: Eight-twelve-week-old male and female LIF-tg^flox/+/Cre-ERT2 mice were injected (i.p.) with tamoxifen ([…] body weight for male and […] body weight for female) to induce LIF expression 3 days before irradiation (D-3). Age- and gender-matched LIF-tg^flox/+/Cre-ERT2 mice were injected with corn oil as control on D-3. On D0 mice were subject to 12 Gy-whole-body irradiated. Mouse intestine tissue was collected at 72 h after irradiation (D3). The levels of Ki67 in intestinal epithelium were determined by immunohistochemistry (IHC) staining. n=6 in Tamoxifen treated group, n=4 in control group.

[5] = target: T1, LIF receptor (LIFR) (Homo sapiens, UniProt P42702); conditions: cited from earlier work
T1 sequence (P42702 45-1097): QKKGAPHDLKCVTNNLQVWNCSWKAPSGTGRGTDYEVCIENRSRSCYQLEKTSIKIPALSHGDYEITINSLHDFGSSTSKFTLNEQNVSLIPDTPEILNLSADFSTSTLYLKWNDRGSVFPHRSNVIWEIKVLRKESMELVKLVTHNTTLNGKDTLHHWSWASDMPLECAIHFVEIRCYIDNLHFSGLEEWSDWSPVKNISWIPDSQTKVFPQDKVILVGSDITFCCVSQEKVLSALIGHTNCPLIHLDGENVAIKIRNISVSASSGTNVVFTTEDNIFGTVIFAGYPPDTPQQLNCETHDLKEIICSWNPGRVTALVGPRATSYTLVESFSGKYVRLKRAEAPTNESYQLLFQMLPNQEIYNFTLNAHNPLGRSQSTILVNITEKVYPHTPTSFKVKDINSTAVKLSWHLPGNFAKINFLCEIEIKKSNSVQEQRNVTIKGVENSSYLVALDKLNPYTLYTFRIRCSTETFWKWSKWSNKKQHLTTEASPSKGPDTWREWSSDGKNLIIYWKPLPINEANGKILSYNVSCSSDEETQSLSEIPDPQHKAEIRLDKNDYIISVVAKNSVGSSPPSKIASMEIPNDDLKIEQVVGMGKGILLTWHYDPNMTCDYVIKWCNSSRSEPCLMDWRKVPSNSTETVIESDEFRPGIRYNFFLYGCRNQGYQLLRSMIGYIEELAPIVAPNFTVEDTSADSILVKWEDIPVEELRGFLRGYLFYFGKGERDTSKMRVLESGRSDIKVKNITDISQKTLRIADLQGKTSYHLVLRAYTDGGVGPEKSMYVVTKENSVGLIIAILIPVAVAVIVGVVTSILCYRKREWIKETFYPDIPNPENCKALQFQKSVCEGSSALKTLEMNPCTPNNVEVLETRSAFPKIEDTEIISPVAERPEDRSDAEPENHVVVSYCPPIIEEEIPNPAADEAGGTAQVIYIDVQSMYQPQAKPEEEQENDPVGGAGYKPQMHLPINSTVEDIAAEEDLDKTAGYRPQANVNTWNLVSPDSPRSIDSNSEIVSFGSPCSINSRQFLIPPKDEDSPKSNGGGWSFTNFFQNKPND

[6] = target: T2, gp130 (LIF:LIFR:gp130 complex) (Homo sapiens, UniProt P40189+P42702); conditions: after binding to LIFR; cited from earlier work
T2 sequence (P40189 23-918): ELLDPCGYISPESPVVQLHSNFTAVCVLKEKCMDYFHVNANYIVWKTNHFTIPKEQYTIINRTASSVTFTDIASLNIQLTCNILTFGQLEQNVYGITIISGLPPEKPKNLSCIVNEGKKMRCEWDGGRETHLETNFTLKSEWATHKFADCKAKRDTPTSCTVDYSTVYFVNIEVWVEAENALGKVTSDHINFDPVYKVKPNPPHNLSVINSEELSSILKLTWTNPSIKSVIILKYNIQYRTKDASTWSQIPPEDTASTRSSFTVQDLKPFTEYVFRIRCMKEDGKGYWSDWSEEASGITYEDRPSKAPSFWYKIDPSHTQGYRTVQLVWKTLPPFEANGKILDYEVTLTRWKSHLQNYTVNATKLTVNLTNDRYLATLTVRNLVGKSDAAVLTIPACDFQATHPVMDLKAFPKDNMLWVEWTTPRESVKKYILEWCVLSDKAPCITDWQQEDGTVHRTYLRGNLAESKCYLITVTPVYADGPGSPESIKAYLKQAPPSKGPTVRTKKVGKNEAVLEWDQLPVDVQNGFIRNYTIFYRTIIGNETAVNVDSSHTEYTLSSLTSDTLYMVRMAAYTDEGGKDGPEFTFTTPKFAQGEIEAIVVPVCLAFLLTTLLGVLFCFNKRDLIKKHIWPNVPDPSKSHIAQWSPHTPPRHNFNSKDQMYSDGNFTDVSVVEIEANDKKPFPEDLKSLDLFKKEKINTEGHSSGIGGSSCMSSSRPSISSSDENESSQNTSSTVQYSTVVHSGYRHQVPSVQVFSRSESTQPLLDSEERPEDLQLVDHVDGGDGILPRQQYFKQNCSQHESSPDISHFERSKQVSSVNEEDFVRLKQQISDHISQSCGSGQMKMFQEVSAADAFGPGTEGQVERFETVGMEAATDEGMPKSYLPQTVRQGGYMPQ
T2 sequence (P42702 45-1097): T1 sequence (P42702 45-1097)

[7] = single s.c. dose, up to doses of 4 μg/kg, healthy volunteers; cited from earlier work
[8] = patients with advanced cancers; cited from earlier work

Compound: NC1(C(=O)N[C@@H](CCO)c2ccc(Cl)cc2)CCN(c2ncnc3[nH]ccc23)CC1 [Capivasertib]
- growth of WT organoids and cell proliferation (surface area, organoid formation, Ki67+ cells) ([1]; inhibitor 1 μM, WT organoids): greatly inhibited
- stem cell number in WT organoids [1]: greatly decreased
- rescue effect of recombinant LIF on the growth of LIF KO organoids ([2]; inhibitor 1 μM with LIF 50 ng/ml): largely abolished
- inhibitory effects on organoid growth and cell proliferation in LIF KO organoids ([2]; inhibitor 1 μM, compared with WT organoids): much less pronounced
- stem cell number in LIF KO organoids [2]: much less pronounced inhibitory effect
- mRNA levels of Axin2, Ascl1, Olfm4 and Lgr5 in LIF KO organoids [3]: less pronounced effect
- mRNA levels of Axin2, Ascl1, Olfm4 and Lgr5 in WT organoids [3]: significantly decreased

Compound: Cc1c[nH]c(-c2cnc(NCCNc3ccc(C#N)cn3)nc2-c2ccc(Cl)cc2Cl)n1 [CHIR99021]
- growth, cell proliferation and stem cell number of WT organoids ([1]; CHIR99021 3 μM, compared with LIF KO organoids): much less pronounced effect
- growth, cell proliferation and stem cell number of LIF KO organoids ([2]; CHIR99021 3 μM): greatly improved

Compound: CCOC(=O)C1=C(N)Oc2ccc(Cl)cc2C1C(C#N)C(=O)OCC (stereo not shown) [SC79]
- growth and cell proliferation of WT organoids ([1]; SC79 5 μM, compared with LIF KO organoids): less pronounced effect
- stem cell number in WT organoids [1]: less pronounced effect
- growth and cell proliferation of LIF KO organoids ([2]; SC79 5 μM): greatly improved
- stem cell number in LIF KO organoids [2]: greatly increased
- mRNA levels of Axin2, Ascl1, Olfm4 and Lgr5 in LIF KO organoids [3]: greatly increased
- mRNA levels of Axin2, Ascl1, Olfm4 and Lgr5 in WT organoids [3]: less pronounced effect

Compound: CC/C(=C(\c1ccccc1)c1ccc(OCCN(C)C)cc1)c1ccccc1 [tamoxifen]
- intestinal crypt regeneration (viable crypts), higher than controls [4]: ~50%

Compound: human LIF: Human canonical LIF, accession number P15018, SEQ ID NO: 1
- affinity of binding to LIFR [5]: low nanomolar
- affinity of functional signaling complex with gp130 [6]: picomolar

Compound: rhLIF: Emfilermin is the term used for rhLIF produced in Escherichia coli
- safety and tolerability [7]: safe and well tolerated
- adverse effects on blood progenitor cells [8]: no adverse effects
- hematopoietic recovery after chemotherapy [8]: normal
- safety of administration [8]: safely administered

Compound: O=[N+]([O-])c1ccc2c(c1)S(=O)(=O)C=C2 [Stattic]
- growth and proliferation of WT organoids [1]: did not have a significant effect
- effect on ISC functions in WT organoids [1]: very limited effect
- growth and proliferation of LIF KO organoids [2]: did not have a significant effect

Compound: COc1nccc(-c2c(-c3ccc(F)cc3)ncn2C2CCNCC2)n1 [SB242235]
- growth and proliferation of WT organoids [1]: did not have a significant effect
- effect on ISC functions in WT organoids [1]: no obvious effect
- growth and proliferation of LIF KO organoids [2]: did not have a significant effect
